Columns and labels:
HUES8 cells = experiment: Differentiation of HUES8 cells to definitive endoderm (Sox17 immunostaining); type: cell-based, human; details: 300 nM ILV, 3 days, in the presence or absence of Wnt3a/Activin
Description: ILV was next tested at different steps of the hESC differentiation process (see FIG. 1a). ILV was tested on the differentiation of HUES8 cells to definitive endoderm population, which was assessed by immunostaining with Sox17 antibody.
(§1) Secondly, ILV was examined on the definitive endoderm population containing 70% Sox17^+ cells derived from HUES8 by Wnt3a/Activin treatment (D'Amour et al., 2006). […] Thus, ILV functions by inducing pancreatic specification of hESC-derived definitive endoderm population.

[1] = system: HUES8-derived definitive endoderm population; experiment: Pancreatic specification of the hESC-derived definitive endoderm population (Pdx1+ cells); type: cell-based, human; details: definitive endoderm population with 70% Sox17+ cells, 4 days; 300 nM ILV, 50 ng/ml FGF10
Description: FIG. 6c are results showing that ILV directs the specification of definitive endoderm population toward pancreatic lineage (definitive endoderm population was derived from HUES8 after 1 day treatment with 25 ng/ml Wnt3a and 100 ng/ml Activin A for 1 day and 100 ng/ml Activin A for additional 2 days; then, the definitive endoderm population was treated with 300 nM ILV or 300 nM ILV+50 ng/ml FGF10 for additional 4 days);
as §1

HUES8-derived population [2] = experiment: Illumina microarray of markers expressed in non-pancreatic tissues; type: cell-based, human; details: 300 nM ILV, 4 days
Description: cRNA samples were prepared with an Illumina TotalPrep RNA Amplification Kit (Ambion). Data was acquired with an Illumina beadstation 500 (Illumina) and analyzed with beadstudio (Illumina).
(§2) To further characterize the cells induced by ILV, beyond Pdx1^+ expression, multiple pancreatic lineage markers were examined by immunocytochemistry and qRT-PCR. More than 96% of the Pdx1^+ cells following ILV treatment show significant expression of other pancreatic progenitor markers, including FOXA2 and HNF6 (FIG. 4a). After ILV treatment, Pdx1, HNF6, Ptfla, Sox9, FOXA2 mRNAs level increase (FIG. 4b).

[3] = system: mouse ESC-derived definitive endoderm with Pdx1-GFP reporter; experiment: Pancreatic differentiation of mESC-derived definitive endoderm (Pdx1-GFP reporter); type: cell-based; details: 300 nM ILV
Description: Mouse embryonic stem cells (mESCs) with Pdx1-GFP reporter are routinely cultured on irradiated CF-1 MEF feeder cells in KnockOut DMEM (Invitrogen) supplemented with 15% FBS (Hyclone), 2 mM L-Glu, 1.1 mM 2-mercaptoethanol, 1 mM nonessential amino acids, 1×PS and 10^3 unit LIF (Chemicon). Cells are passaged at the ratio of 1:12 every 3 days by using 0.25% trypsin-EDTA (Invitrogen).
To generate a definitive endoderm population, mESCs were plated on gelatin-coated surface at 2500 cell/cm^2 after depletion of MEF feeder cells. Then, the cells were treated with 1000 ng/ml recombinant mouse Nodal (R&D systems) in A-RPMI supplemented with 1×L-Glu, 1×L-PS and 0.2% FBS for 5 days. […]
(§3) Total RNAs were extracted with the RNeasy Mini Kit (Qiagen) and reverse-transcribed using SuperScript III RT-PCR system (Invitrogen) according to the manufacturer's protocol. One microliter of cDNA sample was PCR amplified with QuantiFast SYBR Green PCR Kit (Qiagen) and analyzed with DNA engine Opticon2 (MJ Research).
To determine whether ILV functions on other species, the effect of ILV on a population of mouse ESCs (mESCs) that have been induced to form definitive endoderm was examined. […] The increase of Pdx1 expression can be further confirmed with immunostaining (FIG. 3b) and quantitative RT-PCR (qRT-PCR, FIG. 3c). […]

HUES8-derived population [4] = experiment: Pancreatic lineage markers in ILV-treated population (immunocytochemistry, qRT-PCR); type: cell-based, human
Description: as §3
Cells were fixed with 10% formalin solution (Sigma) for 20 min at room temperature. Immunostaining was carried out with standard protocols. The following primary antibodies were used: goat anti-Pdx1 (1:500; R&D system); rabbit anti-FOXA2 (1:500; Upstate); rabbit anti-HNF6 (1:200; Santa Cruz Biotech); guinea pig anti-insulin (1:1000; Dako); rabbit anti-c-peptide (1:500; Linco); rabbit anti-amylase (1:200, Sigma); goat anti-HNF1β (1:100, Santa Cruz Biotech); and biotinylated DBA (1:400; Vector Lab). Alexa-488-, Alexa-555, and Alexa-647-conjugated donkey antibodies against mouse, rabbit, guinea pig and goat, and Pacific Blue conjugate-streptavidin (Invitrogen) were used at 1:300 dilution.
as §2

[5] = system: HUES8-derived treated cells grafted under the kidney capsule; experiment: Kidney capsule implantation of treated cells in CD1-nude mice; type: in vivo, mouse
Description: After 4 days treatment with 300 nM ILV or 300 nM ILV+ 50 ng/ml FGF10, the cells were washed with DPBS for 3 times and treated with 1 mg/ml dispase for 5 min at 37° C. Then, the cells were lifted with the help of cell scraper, collected by centrifugation and resuspended in 50 μl DMEM supplemented 1×B27. About 40 μl (˜2×10^6 cells) of cell clumps were implanted into the left kidney of xylazine anesthetized CD1-nude mice. Two mice were prepared for each sample. Twelve weeks later, the left kidneys were dissected and fixed in 4% paraformaldehyde for 4 hours at 4° C. and processed by standard techniques to generate 15 micrometer cryosections for antibody staining. The antibodies were used as the same condition as immunocytochemistry. Fluorescent images were acquired on an inverted Zeiss LSM 510 confocal microscope.
To further assess the developmental competence of chemically-treated cells, the cells were transplanted under the kidney capsule of nude mice, an assay used by others to observe pancreatic differentiation in vivo (Korsgren et al., 1991; Movassat et al., 2002). […] Additionally, all insulin^+ cells express c-peptide. In contrast, no insulin^+ cells were detected in the mice injected with DMSO-treated population. […]

(−)-Indolactam V [ILV]
differentiation to definitive endoderm (Sox17) versus DMSO control (HUES8 cells): no detectable difference
Pdx1+ cells [1]: 21.5±2.4%
markers expressed in non-pancreatic tissues or organs (Sox7, Cdx2, Ces2, FABP2, AFP, albumin, BARX1, Troponin T, Sox2) (HUES8-derived population [2]): either decrease or do not significantly change
percentage of GFP+ cells ([3]; 6 days): 50.0±6.1%
expression of mRNAs of pancreatic markers (Pdx1, Cdcp1, Ptfla, HNF6, FOXA2, Nkx2.2) ([3]; qRT-PCR): increase
Pdx1, HNF6, Ptfla, Sox9, FOXA2 mRNAs level (HUES8-derived population [4]; 300 nM ILV, 4 days, qRT-PCR): increase
endocrine progenitor markers Nkx2.2, Ngn3 and Nkx6.1 (HUES8-derived population [4]; 300 nM ILV, 4 days, qRT-PCR): upregulated
share of Pdx1+ cells with significant expression of FOXA2 and HNF6 (HUES8-derived population [4]; after ILV treatment, immunocytochemistry): More than 96%
teratoma ([5]; after twelve weeks): no evidence for teratoma was detected
endocrine and exocrine markers in grafts ([5]; cells treated 4 days, implanted in left kidney of CD1-nude mice, twelve weeks): contained cell clusters that expressed endocrine markers, including insulin and c-peptide, and an exocrine marker, amylase

From patent US9157062B2, “Compositions and methods for promoting the generation of PDX1+ pancreatic cells” (President and Fellows of Harvard College, priority 2008, dated 2015)
